{"source": "paper PMC10268011", "about": "(ACS Omega, 2023)", "origin": "cited, not measured here", "data": [{"smiles": "COc1ccc(COc2ccc(Cc3cnc(N)nc3N)cc2OC)cc1", "note": "[GW2580, 5-(3-Methoxy-4-((4-Methoxybenzyl)Oxy)Benzyl)Pyrimidine-2,4-Diamine]", "values": [{"measurement": "systemic bioavailability", "value": "high systemic bioavailability"}]}]}
